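Grown in 96-well plates, cells were treated for 48 hours with each compound at five concentrations. Insufficient inhibition: endpoint recorded as highest concentration tested. GI50 = concentration required for 50% inhibition of growth.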 Activity calls are given as the source filed them. No stated cut-off is given here; in the data, active = GI50 up to about 1.1 µM and inactive = higher.
How the values were obtained:
Assay in all cases: growth of human tumour cells (NCI), 48 h
[1] = system: 786-0
[2] = system: A498
[3] = system: A549
[4] = system: ACHN
[5] = system: BT-549
[6] = system: CAKI-1
[7] = system: CCRF-CEM
[8] = system: COLO 205
[9] = system: DU-145
[10] = system: EKVX
[11] = system: HCC 2998
[12] = system: HCT-116
[13] = system: HCT-15
[14] = system: HL-60
[15] = system: HOP-62
[16] = system: HOP-92
[17] = system: HT-29
[18] = system: Hs-578T
[19] = system: IGROV-1
[20] = system: K562
[21] = system: KM12
[22] = system: LOX IMVI
[23] = system: M14
[24] = system: MCF7
[25] = system: MDA-MB-231
[26] = system: MDA-MB-435
[27] = system: MDA-N
[28] = system: MOLT-4
[29] = system: Malme-3M
[30] = system: NCI-H226
[31] = system: NCI-H23
[32] = system: NCI-H460
[33] = system: NCI-H522
[34] = system: NCI/ADR-RES
[35] = system: OVCAR-3
[36] = system: OVCAR-4
[37] = system: OVCAR-5
[38] = system: OVCAR-8
[39] = system: PC-3
[40] = system: RPMI-8226
[41] = system: RXF 393
[42] = system: SF-268
[43] = system: SF-295
[44] = system: SF-539
[45] = system: SK-MEL-28
[46] = system: SK-MEL-2
[47] = system: SK-MEL-5
[48] = system: SK-OV-3
[49] = system: SN12C
[50] = system: SNB-19
[51] = system: SNB-75
[52] = system: SR
[53] = system: SW-620
[54] = system: T47D
[55] = system: TK-10
[56] = system: U-251
[57] = system: UACC-257
[58] = system: UACC-62
[59] = system: UO-31

## CSC1(C)C(=O)Nc2c(OCc3ccccc3)cc([N+](=O)[O-])cc21 (stereo not drawn)
[1]
  GI50: 12.9 µM (inactive)
[2]
  GI50: 34.2 µM (inactive)
[3]
  GI50: 21.5 µM (inactive)
[4]
  GI50: > 100 µM (inactive)
[5]
  GI50: 51.1 µM (inactive)
[6]
  GI50: 75.3 µM (inactive)
[7]
  GI50: 84.3 µM (inactive)
[8]
  GI50: > 100 µM (inactive)
[9]
  GI50: > 100 µM (inactive)
[10]
  GI50: 29.4 µM (inactive)
[11]
  GI50: > 100 µM (inactive)
[12]
  GI50: 85.5 µM (inactive)
[13]
  GI50: 50.5 µM
[14]
  GI50: 40.7 µM (inactive)
[15]
  GI50: > 100 µM (inactive)
[16]
  GI50: 20 µM (inactive)
[17]
  GI50: 79.3 µM (inactive)
[18]
  GI50: 17.7 µM (inactive)
[19]
  GI50: 54.8 µM (inactive)
[20]
  GI50: 91 µM (inactive)
[21]
  GI50: 96.8 µM (inactive)
[22]
  GI50: 53 µM (inactive)
[23]
  GI50: 29.8 µM (inactive)
[24]
  GI50: 14 µM (inactive)
[25]
  GI50: 26.7 µM (inactive)
[26]
  GI50: 78.3 µM (inactive)
[27]
  GI50: 30.1 µM (inactive)
[28]
  GI50: 83.6 µM (inactive)
[29]
  GI50: 63.4 µM (inactive)
[30]
  GI50: 13.5 µM (inactive)
[31]
  GI50: 75.9 µM (inactive)
[32]
  GI50: > 100 µM (inactive)
[33]
  GI50: 94.8 µM (inactive)
[34]
  GI50: 28.4 µM (inactive)
[35]
  GI50: > 100 µM (inactive)
[36]
  GI50: > 100 µM (inactive)
[37]
  GI50: 63 µM (inactive)
[38]
  GI50: 21.5 µM (inactive)
[39]
  GI50: 27 µM (inactive)
[40]
  GI50: 32.2 µM (inactive)
[41]
  GI50: 51.3 µM (inactive)
[42]
  GI50: 31.6 µM (inactive)
[43]
  GI50: 57.1 µM (inactive)
[44]
  GI50: 66.1 µM (inactive)
[45]
  GI50: 75.3 µM (inactive)
[46]
  GI50: 38.7 µM (inactive)
[47]
  GI50: 15.3 µM (inactive)
[48]
  GI50: > 100 µM (inactive)
[49]
  GI50: 13.4 µM (inactive)
[50]
  GI50: > 100 µM (inactive)
[51]
  GI50: 11.9 µM (inactive)
[52]
  GI50: > 100 µM (inactive)
[53]
  GI50: 71.6 µM (inactive)
[54]
  GI50: 19.3 µM (inactive)
[55]
  GI50: > 100 µM (inactive)
[56]
  GI50: 19.9 µM (inactive)
[57]
  GI50: > 100 µM (inactive)
[58]
  GI50: 19.6 µM (inactive)

## CCOc1cc(C2SCC(=O)N2c2ccc3c(c2)Oc2c(Cl)c4c(c(Cl)c2=N3)Oc2cc(N3C(=O)CSC3c3ccc(O)c(OCC)c3)ccc2N=4)ccc1O (stereo not drawn)
[1]
  GI50: 30.1 µM (inactive)
[2]
  GI50: 58.5 µM (inactive)
[3]
  GI50: 23.8 µM (inactive)
[4]
  GI50: 26.6 µM (inactive)
[5]
  GI50: 21.7 µM (inactive)
[6]
  GI50: > 100 µM (inactive)
[9]
  GI50: 29.9 µM (inactive)
[10]
  GI50: 37.2 µM (inactive)
[11]
  GI50: 21.9 µM (inactive)
[12]
  GI50: 18 µM (inactive)
[13]
  GI50: 43.1 µM
[14]
  GI50: 1.68 µM (inactive)
[15]
  GI50: 31.6 µM (inactive)
[16]
  GI50: 24.5 µM (inactive)
[17]
  GI50: 39.8 µM (inactive)
[18]
  GI50: 73.5 µM (inactive)
[19]
  GI50: 41.9 µM (inactive)
[20]
  GI50: 27 µM (inactive)
[21]
  GI50: 40.9 µM (inactive)
[22]
  GI50: 35.2 µM (inactive)
[23]
  GI50: 27.2 µM (inactive)
[24]
  GI50: 33.3 µM (inactive)
[25]
  GI50: 34.1 µM (inactive)
[26]
  GI50: 35.1 µM (inactive)
[27]
  GI50: 34.8 µM (inactive)
[28]
  GI50: 2.25 µM (inactive)
[30]
  GI50: 25.9 µM (inactive)
[31]
  GI50: 21 µM (inactive)
[32]
  GI50: 30.6 µM (inactive)
[33]
  GI50: 34 µM (inactive)
[34]
  GI50: 39 µM (inactive)
[35]
  GI50: 26.3 µM (inactive)
[36]
  GI50: 46.3 µM (inactive)
[37]
  GI50: > 100 µM (inactive)
[38]
  GI50: 32.7 µM (inactive)
[39]
  GI50: 48.6 µM (inactive)
[40]
  GI50: 31.8 µM (inactive)
[41]
  GI50: 21.3 µM (inactive)
[42]
  GI50: 21.4 µM (inactive)
[43]
  GI50: 38.9 µM (inactive)
[44]
  GI50: 14.9 µM (inactive)
[45]
  GI50: 37.8 µM (inactive)
[46]
  GI50: 27.5 µM (inactive)
[47]
  GI50: 45.8 µM (inactive)
[51]
  GI50: 21.4 µM (inactive)
[52]
  GI50: 2.08 µM (inactive)
[53]
  GI50: 54.7 µM (inactive)
[54]
  GI50: 11 µM (inactive)
[55]
  GI50: 41.7 µM (inactive)
[56]
  GI50: 21 µM (inactive)
[57]
  GI50: 80.9 µM (inactive)
[59]
  GI50: 68.1 µM (inactive)

## COc1cccc(/C=C2/S/C(=N/Nc3nc(C)c(C(C)=O)s3)NC2=O)c1O
[1]
  GI50: 27.8 µM (inactive)
[2]
  GI50: 33.9 µM (inactive)
[3]
  GI50: 37.9 µM (inactive)
[4]
  GI50: 22 µM (inactive)
[5]
  GI50: 28.9 µM (inactive)
[6]
  GI50: 47.5 µM (inactive)
[7]
  GI50: 18.2 µM (inactive)
[8]
  GI50: 27.5 µM (inactive)
[9]
  GI50: 34.4 µM (inactive)
[10]
  GI50: 24.9 µM (inactive)
[11]
  GI50: 35.6 µM (inactive)
[12]
  GI50: 30.7 µM (inactive)
[13]
  GI50: 26.2 µM
[14]
  GI50: 12.4 µM (inactive)
[15]
  GI50: 51.6 µM (inactive)
[16]
  GI50: 28.9 µM (inactive)
[17]
  GI50: 37.6 µM (inactive)
[18]
  GI50: 57.8 µM (inactive)
[19]
  GI50: 35.9 µM (inactive)
[20]
  GI50: 31.1 µM (inactive)
[21]
  GI50: 36.2 µM (inactive)
[22]
  GI50: 31.7 µM (inactive)
[23]
  GI50: 32.8 µM (inactive)
[24]
  GI50: 32.6 µM (inactive)
[25]
  GI50: 18.9 µM (inactive)
[26]
  GI50: 30.5 µM (inactive)
[27]
  GI50: 31.7 µM (inactive)
[29]
  GI50: 33 µM (inactive)
[30]
  GI50: 37.7 µM (inactive)
[31]
  GI50: 35.3 µM (inactive)
[32]
  GI50: 29.6 µM (inactive)
[33]
  GI50: 17.3 µM (inactive)
[34]
  GI50: 33.8 µM (inactive)
[35]
  GI50: 22.5 µM (inactive)
[36]
  GI50: 30.3 µM (inactive)
[37]
  GI50: 26.4 µM (inactive)
[38]
  GI50: 34.3 µM (inactive)
[39]
  GI50: 25.9 µM (inactive)
[40]
  GI50: 27 µM (inactive)
[41]
  GI50: 28.8 µM (inactive)
[42]
  GI50: 40.6 µM (inactive)
[43]
  GI50: 52.8 µM (inactive)
[44]
  GI50: 34.8 µM (inactive)
[45]
  GI50: 39.7 µM (inactive)
[46]
  GI50: 21.2 µM (inactive)
[47]
  GI50: 20.9 µM (inactive)
[48]
  GI50: 66.8 µM (inactive)
[49]
  GI50: 31.7 µM (inactive)
[50]
  GI50: 38 µM (inactive)
[51]
  GI50: 37.9 µM (inactive)
[52]
  GI50: 27.7 µM (inactive)
[53]
  GI50: 29.2 µM (inactive)
[54]
  GI50: 23.3 µM (inactive)
[55]
  GI50: 27.6 µM (inactive)
[56]
  GI50: 18.5 µM (inactive)
[57]
  GI50: 25.4 µM (inactive)
[58]
  GI50: 20.1 µM (inactive)
[59]
  GI50: 21.5 µM (inactive)

Source: ChEMBL document CHEMBL1201862, “PubChem BioAssay data set” (2004)
